Test results from patent US6897219B2, “Heteroaryl diazacycloalkanes, their preparation and use” (priority 1997, dated 2005).
Where two headings read alike, the source gives them in different places.

Assays:
[1] = target: nAChR formed by the α7 subunit isoform (Rattus norvegicus, UniProt Q05941); experiment: biochemical; format: binding
[2] = target: T1, neuronal nicotinic receptors (α4β2 subtype high affinity site) (Rattus norvegicus, UniProt P09483+P12390); experiment: In vitro inhibition of 3H-epibatidin binding
T1 construct: The forebrain (÷cerebellum) from a male Wistar rat (150-250 g) is homogenized; from tissue; host or cells: rat forebrain (without cerebellum) membrane homogenate
T1 sequence (P09483 31-630): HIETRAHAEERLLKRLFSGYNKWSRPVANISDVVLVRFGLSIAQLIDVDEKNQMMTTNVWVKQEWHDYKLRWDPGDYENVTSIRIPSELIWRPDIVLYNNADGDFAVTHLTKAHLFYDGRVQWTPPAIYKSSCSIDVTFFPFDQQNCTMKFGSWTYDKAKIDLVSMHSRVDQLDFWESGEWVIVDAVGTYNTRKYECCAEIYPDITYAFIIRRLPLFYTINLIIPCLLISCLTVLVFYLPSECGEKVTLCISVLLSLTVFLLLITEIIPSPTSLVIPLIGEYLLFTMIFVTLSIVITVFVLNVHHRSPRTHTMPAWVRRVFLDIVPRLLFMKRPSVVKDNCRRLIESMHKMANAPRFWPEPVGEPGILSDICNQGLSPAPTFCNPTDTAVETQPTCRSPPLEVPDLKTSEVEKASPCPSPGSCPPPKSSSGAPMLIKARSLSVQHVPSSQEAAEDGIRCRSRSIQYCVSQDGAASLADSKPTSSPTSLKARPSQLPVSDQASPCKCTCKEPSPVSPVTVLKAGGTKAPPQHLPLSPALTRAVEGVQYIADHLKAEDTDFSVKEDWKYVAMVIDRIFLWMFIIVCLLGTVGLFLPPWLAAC
T1 sequence (P12390 25-500): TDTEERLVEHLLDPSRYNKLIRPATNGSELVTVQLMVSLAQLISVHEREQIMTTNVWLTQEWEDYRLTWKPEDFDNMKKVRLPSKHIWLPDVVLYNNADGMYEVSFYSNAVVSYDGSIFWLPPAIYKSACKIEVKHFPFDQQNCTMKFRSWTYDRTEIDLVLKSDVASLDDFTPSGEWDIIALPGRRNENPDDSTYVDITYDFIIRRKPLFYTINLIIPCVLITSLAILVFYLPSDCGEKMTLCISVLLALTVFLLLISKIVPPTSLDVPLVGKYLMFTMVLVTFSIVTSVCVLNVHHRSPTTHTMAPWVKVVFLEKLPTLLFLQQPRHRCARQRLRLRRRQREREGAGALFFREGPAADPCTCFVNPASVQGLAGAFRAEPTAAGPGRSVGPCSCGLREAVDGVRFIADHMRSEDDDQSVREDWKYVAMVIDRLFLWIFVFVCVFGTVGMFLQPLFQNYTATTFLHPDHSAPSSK
Description: The high affinity binding site for ^3H-epibatidin is most certainly binding to the α4β2 subtype of nicotinic receptors. The identity of the low affinity site is still unknown; does it represent a second nicotinic receptor or a second site in the same receptor.
Tissue preparation: Preparations are performed at 0-4° C. unless otherwise indicated. The forebrain (÷cerebellum) from a male Wistar rat (150-250 g) is homogenized for 10-20 sec in 20 ml Tris, HCl (50 mM, pH 7.4) using an Ultra-Turrax homogenizer. The tissue suspension is centrifuged at 27,000×g for 10 min. The supernatant is discarded and the pellet is washed three times by centrifugation at 27,000×g for 10 min in 20 ml fresh buffer, and the final pellet is resuspended in fresh buffer (400 ml per g of original tissue) and used for binding assays.
Assay: Aliquots of 2.0 ml homogenate are added to 0.100 ml of test solution and 0.100 ml of ^3H-epibatidin (0.3 nM, final concentration), mixed and incubated for 60 min at room temperature. Non-specific binding is determined using (−)-nicotine (30 μM, final concentration). After incubation the samples are poured directly onto Whatman GF/C glass fibre filters (presoaked in 0.1% PEI for at least 20 min) under suction and immediately washed with 2×5 ml ice-cold buffer. The amount of radioactivity on the filters is determined by conventional liquid scintillation counting. Specific binding is total binding minus non-specific binding.

[3] = target: nAChRs comprised of α4 and β2 subunits (Rattus norvegicus, UniProt P09483+P12390); experiment: In vitro inhibition of 3H-cytisine binding
nAChRs comprised of α4 and β2 subunits, sequence (P09483 31-630): as the sequence (P09483 31-630) above
nAChRs comprised of α4 and β2 subunits, sequence (P12390 25-500): as the sequence (P12390 25-500) above
Description: The predominant subtype with high affinity for nicotine is comprised of α4 and β2 subunits. nAChRs of the latter type can selectively be labelled by the nicotine agonist ^3H-cytisine.
Tissue Preparation: Preparations are performed at 0-4° C. unless otherwise indicated. […] The homogenate is centrifuged at 27,000×g for 10 min. The supernatant is discarded and the pellet is resuspended in fresh buffer and centrifuged a second time. The final pellet is resuspended in fresh buffer (35 ml per g of original tissue) and used for binding assays.
Assay: Aliquots of 500 μl homogenate are added to 25 μl of test solution and 25 μl of ^3H-cytisine (1 nM, final concentration), mixed and incubated for 90 min at 2° C. Non-specific binding is determined using (−)-nicotine (100 μM, final concentration). After incubation the samples are added 5 ml of ice-cold buffer and poured directly onto Whatman GF/C glass fibre filters under suction and immediately washed with 2×5 ml ice-cold buffer. The amount of radioactivity on the filters is determined by conventional liquid scintillation counting. Specific binding is total binding minus non-specific binding.

[4] = relative to morphine; cited from earlier work
[5] = rat forebrain homogenate, 0.3 nM 3H-epibatidin, 60 min at room temperature, read-out: 3H-epibatidin IC50
[6] = rat cerebral cortex homogenate, 1 nM 3H-cytisine, 90 min at 2° C., read-out: 3H-cytisine IC50

nAChR formed by the α7 subunit isoform, sequence (Q05941 23-502): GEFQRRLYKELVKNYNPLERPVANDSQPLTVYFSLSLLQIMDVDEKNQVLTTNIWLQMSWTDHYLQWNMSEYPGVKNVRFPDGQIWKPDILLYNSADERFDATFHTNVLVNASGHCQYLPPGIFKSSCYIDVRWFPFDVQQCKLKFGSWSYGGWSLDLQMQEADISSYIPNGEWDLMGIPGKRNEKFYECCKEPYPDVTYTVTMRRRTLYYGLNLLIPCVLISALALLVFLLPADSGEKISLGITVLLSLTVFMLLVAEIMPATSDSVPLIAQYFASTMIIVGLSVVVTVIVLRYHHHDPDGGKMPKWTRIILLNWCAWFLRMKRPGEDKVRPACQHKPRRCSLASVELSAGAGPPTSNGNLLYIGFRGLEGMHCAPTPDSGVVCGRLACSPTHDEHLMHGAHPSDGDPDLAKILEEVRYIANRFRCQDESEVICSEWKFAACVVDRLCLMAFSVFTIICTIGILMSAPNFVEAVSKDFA

COc1cncc(N2CCN(C)CC2)c1 [Compound 3A, 4-Methyl-1-(5-methoxy-3-pyridyl)-piperazine]
IC50 [1]: 32500 nM
IC50 [2, 5]: 380 nM
IC50 [3]: 68 nM
melting point: 67.5 to 68 °C

CN1CCCN(c2cncc(OCC3CC3)c2)CC1 [Compound 9E, 1-(5-Cyclopropylmethoxy-3-pyridyl)-4-methyl-homopiperazine]
IC50 [1]: > 30000 nM
IC50 [2, 5]: 4800 nM
IC50 [3]: 78 nM

c1ncc(N2CCCNCC2)cc1OCC1CC1 [Compound 9H, 1-(5-Cyclopropylmethoxy-3-pyridyl)-homopiperazine]
IC50 [1]: > 30000 nM
IC50 [2]: 6 nM
IC50 [3]: 1 nM

CCCOc1cncc(N2CCCN(C)CC2)c1 [Compound 10E, 4-Methyl-1-(5-propyloxy-3-pyridyl)-homopiperazine]
IC50 [1]: > 30000 nM
IC50 [2, 5]: 290 nM
IC50 [3]: 60 nM

CCCOc1cncc(N2CCCNCC2)c1 [Compound 10H, 1-(5-Propyloxy-3-pyridyl)-homopiperazine]
IC50 [1]: > 30000 nM
IC50 [2]: 5.4 nM
IC50 [3]: 0.9 nM

CCCCCCOc1cncc(N2CCCN(C)CC2)c1 [Compound 11E, 1-(5-Hexyloxy-3-pyridyl)-4-methyl-homopiperazine]
IC50 [1]: > 30000 nM
IC50 [2]: 250 nM
IC50 [3, 6]: 800 nM

CC(C)CCOc1cncc(N2CCCN(C)CC2)c1 [Compound 12E, 4-Methyl-1-[5-(3-methyl-butoxy)-3-pyridyl]-homopiperazine]
IC50 [1]: > 30000 nM
IC50 [2, 5]: 270 nM
IC50 [3]: 55 nM

CN1CCCN(c2cncc(OCC3CCCCC3)c2)CC1 [Compound 14E, 1-(5-Cyclohexylmethoxy-3-pyridyl)-4-methyl-homopiperazine]
IC50 [1]: > 30000 nM
IC50 [2]: 480 nM
IC50 [3, 6]: 200 nM

CCCCCOc1cncc(N2CCCN(C)CC2)c1 [Compound 15E, 4-Methyl-1-(5-pentyloxy-3-pyridyl)-homopiperazine]
IC50 [1]: > 30000 nM
IC50 [2, 5]: 210 nM
IC50 [3]: 30 nM

CCCCCCCOc1cncc(N2CCCN(C)CC2)c1 [Compound 16E, 1-(5-Heptyloxy-3-pyridyl)-4-methyl-homopiperazine]
IC50 [1]: > 30000 nM
IC50 [2]: 700 nM
IC50 [3, 6]: 280 nM

C/C=C/Oc1cncc(N2CCCN(C)CC2)c1 [Compound 17E, trans-4-Methyl-1-(5-propyl-1-en-oxy-3-pyridyl)-homopiperazine]
IC50 [1]: > 30000 nM
IC50 [2]: 90 nM
IC50 [3]: 20 nM

CN1CCCN(c2cncc(SCc3ccccc3)c2)CC1 [Compound 18E, 4-Methyl-1-(5-thiobenzyl-3-pyridyl)-homopiperazine]
IC50 [1]: 15000 nM
IC50 [2]: 800 nM
IC50 [3, 6]: 600 nM

CN1CCCN(c2cncc(-c3cccnc3)c2)CC1 [Compound 19E, 4-Methyl-1-[5-(3-pyridyl)-3-pyridyl]-homopiperazine]
IC50 [1]: > 30000 nM
IC50 [2]: 1800 nM
IC50 [3, 6]: 170 nM

CN1CCCN(c2cncc(OC3CCCC3)c2)CC1 [Compound 25E, 1-(5-Cyclopentyloxy-3-pyridyl)-4-methyl-homopiperazine]
IC50 [1]: > 30000 nM
IC50 [2, 5]: 610 nM
IC50 [3]: 80 nM

Clc1ccc(C2CC3CCC2N3)cn1 (centres unmarked) [Epibatidine]
analgesic potency, times that of morphine [4]: ~500 times
